# Test results: patent US10758517B2, “mPGES-1 inhibitor for the treatment of osteoarthritis pain” (Glenmark Pharmaceuticals S.A., priority 2017, dated 2020)
# Legend:
# [1] = Safety and tolerability of single oral doses (Example 1); type: in vivo, human; conditions: single doses up to 1000 mg
# Protocol: (§1) In Part 1a, single doses of Compound I of 10 mg (Group A), 30 mg (Group B), 100 mg (Group C), 250 mg (Group D), 500 mg (Group E) and 1000 mg (Group F) were administered after fasting. In each dose group, 6 subjects received Compound I and 2 subjects received placebo.
# Adverse events (AEs), vital signs, 12-lead electrocardiogram (ECG), clinical laboratory evaluations and physical examination.
# (§2) Summary statistics were presented for the PK, pharmacodynamic (PD) and safety data, as appropriate. PK parameters following single oral doses of Compound I were determined from the plasma concentrations of Compound I using non-compartmental procedures in WinNonlin Dose proportionality was assessed using a power model, with tmax analyzed using the Kruskal-Wallis test. The effect of food on PK was assessed at the 100 and 250 mg doses using a mixed effects model. The effect of age on PK was assessed for elderly (>65 years) versus non-elderly (<65 years) at the 250 mg dose level in Parts 1a and 2, using an analysis of variance (ANOVA) with age as a fixed effect. For PD analyses, percent decrease of ex vivo LPS-induced PGE2 release was calculated. For Part 3, urinary excretion of prostanoid metabolites was also evaluated. The data are presented as absolute, as well as creatinine normalized urinary biomarker amounts, along percent change from baseline over a definite time interval. The percent change from baseline in urinary biomarkers was assessed using an analysis of covariance (ANCOVA) model
# LPS-induced PGE2 release [2] = test: Ex vivo LPS-induced PGE2 release in whole blood, single ascending oral doses (Example 1, Part 1a); design: species or system human; conditions: for EAUC0-24 h, Difference in LS mean versus placebo / EAUC0-24 h, LS mean / EAUC0-336 h, Difference in LS mean versus placebo / EAUC0-336 h, LS mean / ETmax (time to reach maximum effect), Median / ETmax, Median difference versus placebo / Epeak (maximum % inhibition), LS mean / Epeak, Difference in LS mean versus placebo: fasted healthy subjects
# Protocol: as §1
# (§3) In Parts 1a and 3, whole blood samples were incubated and analyzed for lipopolysaccharide (LPS)-induced prostaglandin PGE2 release. In Part 3, urine samples were collected for analysis of prostanoid metabolites.
# as §2
# (§4) Percent change in ex vivo LPS-induced PGE2 release in whole blood is the pharmacodynamic (PD) biomarker. The PGE2 levels in whole blood were estimated using the homogeneous time-resolved fluorescence method.
# (§5) Concentrations below the limit of quantification were treated as ½ the lower limit of quantification for calculation.
# Time points where unstimulated PGE2 concentration was more than 3 times greater than the mean unstimulated PGE2 and equal to or greater than ½ baseline value for an individual subject were not included in the calculation of percent inhibition. If pre-dose LPS-induced PGE2 was less than unstimulated PGE2, the value was not used for calculation of percent inhibition.
# LPS-induced PGE2 release [3] = test: Ex vivo LPS-induced PGE2 release in whole blood, single dose crossover versus celecoxib (Example 1, Part 3); design: species or system human
# Protocol: Part 2 was a single-dose, double-blind study in a single cohort of elderly subjects. Part 3 was an open-label, randomized, 2-period, single-dose, crossover study to compare effects of the highest tolerated Compound I dose and celecoxib on prostanoid metabolism in healthy adult subjects.
# In Part 3, Compound I was administered at a dose of 1000 mg after fasting. All subjects received Compound I and all subjects received 400 mg celecoxib in a cross-over study design.
# as §3, §2, §4, §5
# Time points where unstimulated prostaglandin E2 (PGE2) concentration was more than 3 times greater than the mean unstimulated PGE2 and equal to or greater than ½ baseline value for an individual subject were not included in the calculation of % inhibition.
# [4] = Compound I 1000 mg versus celecoxib 400 mg, single oral doses, fasted
# [5] = single oral dose 1000 mg, fasted healthy subjects
compound,measurement,setting,value
"CC(C)(C)C(=O)NCc1ccc(Cl)c(-c2nn(-c3ccc(C(F)(F)F)cc3)c(=O)[nH]2)c1 [Compound I, N-(4-chloro-3-(5-oxo-1-(4-(trifluoromethyl)phenyl)-4,5-dihydro-1H-1,2,4-triazol-3-yl)benzyl)pivalamide]",dose effect on incidence or severity of treatment-emergent AEs,[1],no evidence of a dose effect
same,lab abnormalities or ECG findings,[1],No clinically significant lab abnormalities or ECG findings
same,tolerability,[1]; healthy adult subjects,well tolerated
same,persistence of inhibition,LPS-induced PGE2 release [2]; 1000 mg single dose,still apparent at 336 hours
same,time for which near maximal inhibition was retained,LPS-induced PGE2 release [2]; 250 and 500 mg single doses,at least 168 hours
same,time for which reduction in PGE2 release was apparent,"LPS-induced PGE2 release [2]; lower doses, post-dose",approximately 24 hours
same,"EAUC0-24 h, Difference in LS mean versus placebo",LPS-induced PGE2 release [2]; single oral dose 10 mg,956 % · h
same,"EAUC0-24 h, LS mean",LPS-induced PGE2 release [2]; single oral dose 10 mg,898 % · h
same,"EAUC0-336 h, Difference in LS mean versus placebo",LPS-induced PGE2 release [2]; single oral dose 10 mg,−5321 % · h
same,"EAUC0-336 h, LS mean",LPS-induced PGE2 release [2]; single oral dose 10 mg,−3824 % · h
same,"ETmax (time to reach maximum effect), Median",LPS-induced PGE2 release [2]; single oral dose 10 mg,4.00 h
same,"ETmax, Median difference versus placebo",LPS-induced PGE2 release [2]; single oral dose 10 mg,-8.02 h
same,"Epeak (maximum % inhibition), LS mean",LPS-induced PGE2 release [2]; single oral dose 10 mg,77.7%
same,"Epeak, Difference in LS mean versus placebo",LPS-induced PGE2 release [2]; single oral dose 10 mg,9.90%
same,"EAUC0-24 h, Difference in LS mean versus placebo",LPS-induced PGE2 release [2]; single oral dose 30 mg,1028 % · h
same,"EAUC0-24 h, LS mean",LPS-induced PGE2 release [2]; single oral dose 30 mg,970 % · h
same,"EAUC0-336 h, Difference in LS mean versus placebo",LPS-induced PGE2 release [2]; single oral dose 30 mg,7240 % · h
same,"EAUC0-336 h, LS mean",LPS-induced PGE2 release [2]; single oral dose 30 mg,8736 % · h
same,"ETmax (time to reach maximum effect), Median",LPS-induced PGE2 release [2]; single oral dose 30 mg,3.04 h
same,"ETmax, Median difference versus placebo",LPS-induced PGE2 release [2]; single oral dose 30 mg,-8.98 h
same,"Epeak (maximum % inhibition), LS mean",LPS-induced PGE2 release [2]; single oral dose 30 mg,72.8%
same,"Epeak, Difference in LS mean versus placebo",LPS-induced PGE2 release [2]; single oral dose 30 mg,4.94%
same,"EAUC0-24 h, Difference in LS mean versus placebo",LPS-induced PGE2 release [2]; single oral dose 100 mg,1709 % · h
same,"EAUC0-24 h, LS mean",LPS-induced PGE2 release [2]; single oral dose 100 mg,1650 % · h
same,"EAUC0-336 h, Difference in LS mean versus placebo",LPS-induced PGE2 release [2]; single oral dose 100 mg,10115 % · h
same,"EAUC0-336 h, LS mean",LPS-induced PGE2 release [2]; single oral dose 100 mg,11612 % · h
same,"ETmax (time to reach maximum effect), Median",LPS-induced PGE2 release [2]; single oral dose 100 mg,7.02 h
same,"ETmax, Median difference versus placebo",LPS-induced PGE2 release [2]; single oral dose 100 mg,-7.50 h
same,"Epeak (maximum % inhibition), LS mean",LPS-induced PGE2 release [2]; single oral dose 100 mg,91.6%
same,"Epeak, Difference in LS mean versus placebo",LPS-induced PGE2 release [2]; single oral dose 100 mg,23.8%
same,"EAUC0-24 h, Difference in LS mean versus placebo",LPS-induced PGE2 release [2]; single oral dose 250 mg,1608 % · h
same,"EAUC0-24 h, LS mean",LPS-induced PGE2 release [2]; single oral dose 250 mg,1550 % · h
same,"EAUC0-336 h, Difference in LS mean versus placebo",LPS-induced PGE2 release [2]; single oral dose 250 mg,12965 % · h
same,"EAUC0-336 h, LS mean",LPS-induced PGE2 release [2]; single oral dose 250 mg,14461 % · h
same,"ETmax (time to reach maximum effect), Median",LPS-induced PGE2 release [2]; single oral dose 250 mg,2.03 h
same,"ETmax, Median difference versus placebo",LPS-induced PGE2 release [2]; single oral dose 250 mg,-9.94 h
same,"Epeak (maximum % inhibition), LS mean",LPS-induced PGE2 release [2]; single oral dose 250 mg,92.8%
same,"Epeak, Difference in LS mean versus placebo",LPS-induced PGE2 release [2]; single oral dose 250 mg,24.9%
same,"EAUC0-24 h, Difference in LS mean versus placebo",LPS-induced PGE2 release [2]; single oral dose 500 mg,1766 % · h
same,"EAUC0-24 h, LS mean",LPS-induced PGE2 release [2]; single oral dose 500 mg,1707 % · h
same,"EAUC0-336 h, Difference in LS mean versus placebo",LPS-induced PGE2 release [2]; single oral dose 500 mg,16417 % · h
same,"EAUC0-336 h, LS mean",LPS-induced PGE2 release [2]; single oral dose 500 mg,17914 % · h
same,"ETmax (time to reach maximum effect), Median",LPS-induced PGE2 release [2]; single oral dose 500 mg,12.0 h
same,"ETmax, Median difference versus placebo",LPS-induced PGE2 release [2]; single oral dose 500 mg,-0.0333 h
same,"Epeak (maximum % inhibition), LS mean",LPS-induced PGE2 release [2]; single oral dose 500 mg,87.7%
same,"Epeak, Difference in LS mean versus placebo",LPS-induced PGE2 release [2]; single oral dose 500 mg,19.9%
same,"EAUC0-24 h, Difference in LS mean versus placebo",LPS-induced PGE2 release [2]; single oral dose 1000 mg,1086 % · h
same,"EAUC0-24 h, LS mean",LPS-induced PGE2 release [2]; single oral dose 1000 mg,1028 % · h
same,"EAUC0-336 h, Difference in LS mean versus placebo",LPS-induced PGE2 release [2]; single oral dose 1000 mg,17780 % · h
same,"EAUC0-336 h, LS mean",LPS-induced PGE2 release [2]; single oral dose 1000 mg,19277 % · h
same,"ETmax (time to reach maximum effect), Median",LPS-induced PGE2 release [2]; single oral dose 1000 mg,144 h
same,"ETmax, Median difference versus placebo",LPS-induced PGE2 release [2]; single oral dose 1000 mg,112 h
same,"Epeak (maximum % inhibition), LS mean",LPS-induced PGE2 release [2]; single oral dose 1000 mg,81.8%
same,"Epeak, Difference in LS mean versus placebo",LPS-induced PGE2 release [2]; single oral dose 1000 mg,14.0%
same,inhibition of ex vivo LPS-induced PGE2 release (in words),LPS-induced PGE2 release [2]; single oral doses from 10 mg to 1000 mg,marked dose-dependent inhibition
same,"EAUC0-24 h, Difference in LS mean versus celecoxib",LPS-induced PGE2 release [3]; [4],7.89 % · h
same,"EAUC0-336 h, Difference in LS mean versus celecoxib",LPS-induced PGE2 release [3]; [4],19024 % · h
same,"ETmax, Median difference versus celecoxib",LPS-induced PGE2 release [3]; [4],6.00 h
same,"Epeak, Difference in LS mean versus celecoxib",LPS-induced PGE2 release [3]; [4],−1.87%
same,"EAUC0-24 h, LS mean",LPS-induced PGE2 release [3]; [5],1428 % · h
same,"EAUC0-336 h, LS mean",LPS-induced PGE2 release [3]; [5],8866 % · h
same,"ETmax (time to reach maximum effect), Median",LPS-induced PGE2 release [3]; [5],12.0 h
same,"Epeak (maximum % inhibition), LS mean",LPS-induced PGE2 release [3]; [5],87.2%
same,inhibition of LPS-induced PGE2 concentration,"LPS-induced PGE2 release [3]; single oral dose 1000 mg, maintained for at least 168 hours post-dose",approximately 50%
